Test results as given in US20230365554A1, “SUBSTITUTED PYRROLO-PYRIDINONE DERIVATIVES AND THERAPEUTIC USES THEREOF” (The Broad Institute, Inc., priority 2020, published 2023).

Experiments:
human CSNK1D = human CSNK1D (Homo sapiens (Human), UniProt P48730); test: CSNK1D assay (ADP-Glo, 1 μM ATP); format: biochemical; conditions: median, Table 2, read-out: CSNK1D IC50 [mol/l] (median)
Procedure, shortened: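 GST-tagged full-length human CSNK1D (baculovirus/insect cell; typically about 0.5 ng/μL) preincubated with compound 15 min, then reacted 30 min at 22 °C with 1 μM ATP and 30 μM biotinylated peptide (final) in HEPES pH 7.5 buffer. ADP quantified by ADP-Glo luminescence; data normalised to no-inhibitor and no-enzyme controls.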

human CSNK1A1 = human CSNK1A1 (Homo sapiens (Human), UniProt P48729); test: CSNK1A1 Assay 2 (ADP-Glo, 1 μM ATP); format: biochemical; conditions: median, Table 2, read-out: CSNK1A1 Assay 2 IC50 [mol/l] (median)
Procedure, shortened: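 GST-tagged full-length human CSNK1A1 from insect cells, preincubated 15 min with compound, then reacted 30 min at 22° C with 1 μM ATP and 30 μM biotinylated peptide substrate in pH 7.5 HEPES buffer. ADP measured by ADP-Glo luminescence; normalised to no-inhibitor (0%) and no-enzyme (100%) controls.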

human CSNK1D, sequence (P48730 whole entry): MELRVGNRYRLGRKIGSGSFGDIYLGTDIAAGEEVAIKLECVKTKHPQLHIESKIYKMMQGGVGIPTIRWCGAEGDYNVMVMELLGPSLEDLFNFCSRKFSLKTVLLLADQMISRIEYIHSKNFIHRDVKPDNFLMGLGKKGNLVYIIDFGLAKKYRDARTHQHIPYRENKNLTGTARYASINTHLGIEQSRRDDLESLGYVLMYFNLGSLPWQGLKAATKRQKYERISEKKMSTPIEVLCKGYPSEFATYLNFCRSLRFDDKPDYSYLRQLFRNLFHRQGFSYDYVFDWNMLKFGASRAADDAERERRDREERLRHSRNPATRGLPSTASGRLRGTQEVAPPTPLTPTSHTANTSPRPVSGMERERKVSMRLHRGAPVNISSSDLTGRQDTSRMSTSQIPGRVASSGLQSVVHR
human CSNK1A1, sequence (P48729 whole entry): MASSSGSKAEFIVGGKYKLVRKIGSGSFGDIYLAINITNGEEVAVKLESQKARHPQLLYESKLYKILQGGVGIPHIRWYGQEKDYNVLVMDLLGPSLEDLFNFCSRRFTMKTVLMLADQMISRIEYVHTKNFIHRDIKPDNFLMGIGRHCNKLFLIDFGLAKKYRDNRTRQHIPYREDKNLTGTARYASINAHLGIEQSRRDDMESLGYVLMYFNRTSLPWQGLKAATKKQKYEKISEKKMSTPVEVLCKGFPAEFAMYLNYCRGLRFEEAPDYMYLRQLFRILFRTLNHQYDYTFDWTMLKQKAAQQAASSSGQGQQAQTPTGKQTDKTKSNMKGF

| SMILES | IC50 (human CSNK1D) [nM] | IC50 (human CSNK1A1) [nM] |
| --- | --- | --- |
| Cn1cc(CC2CC2)c2[nH]c(-c3ccnc(NC(=O)Cc4ccc(F)cc4)c3)c(Nc3ccccc3)c2c1=O [Example 32, N-{4-[3-anilino-7-(cyclopropylmethyl)-5-methyl-4-oxo-4,5-dihydro-1H-pyrrolo[3,2-c]pyridin-2-yl]pyridin-2-yl}-2-(4-fluorophenyl)acetamide] | 36 | 27 |
| Cc1ccccc1Nc1c(-c2ccnc(NC(=O)Cc3ccc(F)cc3)c2)[nH]c2c(CC(F)(F)F)cn(C)c(=O)c12 [Example 33, 2-(4-fluorophenyl)-N-{4-[5-methyl-3-(2-methylanilino)-4-oxo-7-(2,2,2-trifluoroethyl)-4,5-dihydro-1H-pyrrolo[3,2-c]pyridin-2-yl]pyridin-2-yl}acetamide] | 6.2 | 8.6 |
| Cn1cc(CC(F)(F)F)c2[nH]c(-c3ccnc(NC(=O)Cc4ccc(F)cc4)c3)c(Nc3ccccc3)c2c1=O [Example 34, N-{4-[3-anilino-5-methyl-4-oxo-7-(2,2,2-trifluoroethyl)-4,5-dihydro-1H-pyrrolo[3,2-c]pyridin-2-yl]pyridin-2-yl}-2-(4-fluorophenyl)acetamide] | 9.1 | 4.3 |
| Cn1cc(CC(F)F)c2[nH]c(-c3ccnc(NC(=O)Cc4ccc(F)cc4)c3)c(Nc3ccccc3)c2c1=O [Example 45, N-{4-[3-anilino-7-(2,2-difluoroethyl)-5-methyl-4-oxo-4,5-dihydro-1H-pyrrolo[3,2-c]pyridin-2-yl]pyridin-2-yl}-2-(4-fluorophenyl)acetamide] | 9.7 | 5.7 |
